Earlier results on one molecule are cited in patent US11666634B2, “Methods and compositions for management of gastrointestinal disorders” (THE BOARD OF REGENTS OF THE UNIVERSITY OF TEXAS SYSTEM, priority 2019, dated 2023).

Structures are written as SMILES.

Regarding `CC[C@H](C)[C@H](NC(=O)[C@@H]1CCCN1C(=O)CNC(=O)[C@H](Cc1ccccc1)NC(=O)[C@H](CC(N)=O)NC(=O)[C@H](CC(N)=O)NC(=O)[C@H](CO)NC(=O)[C@H](CO)NC(=O)[C@H](Cc1c[nH]cn1)NC(=O)[C@@H](NC(=O)[C@H](CC(C)C)NC(=O)[C@H](Cc1ccccc1)NC(=O)[C@H](CC(N)=O)NC(=O)[C@H](C)NC(=O)[C@H](CC(C)C)NC(=O)[C@H](CCCNC(=N)N)NC(=O)[C@H](CCC(N)=O)NC(=O)[C@@H](NC(=O)[C@H](C)NC(=O)[C@@H]1CSSC[C@H](NC(=O)[C@@H](N)CCCCN)C(=O)N[C@@H](CC(N)=O)C(=O)N[C@@H]([C@@H](C)O)C(=O)N[C@@H](C)C(=O)N[C@@H]([C@@H](C)O)C(=O)N1)[C@@H](C)O)C(C)C)C(=O)N[C@@H](CC(C)C)C(=O)N1CCC[C@H]1C(=O)N1CCC[C@H]1C(=O)N[C@H](C(=O)N[C@@H](CC(N)=O)C(=O)N[C@H](C(=O)NCC(=O)N[C@@H](CO)C(=O)N[C@@H](CC(N)=O)C(=O)N[C@H](C(=O)N[C@@H](Cc1ccc(O)cc1)C(N)=O)[C@@H](C)O)C(C)C)[C@@H](C)O` [Pramlintide, pramlintide], the “gastric emptying half time” value (gastric emptying of a liquid, delayed from a half time of 30 minutes without pramlintide) was 110 min. Also, the “rate of gastric emptying” value (result in words) is listed as “significantly decreased”.
